# Experimental data: patent EP4699605A1, “USE OF NOVEL COMPOUND FOR TREATING INTRACTABLE DISEASES” (YJ Cerapeutics Inc., priority 2023, dated 2024)
# What was measured:
# Raw 264.7 cell line = test: Inflammatory factor mRNA in LPS-treated macrophage cell line (RT-PCR); format: cell-based; conditions: LPS treatment
# Protocol: In order to determine whether YJ102 affected the production of proNGF as a ligand of p75, the expression of proNGF in the bladder was confirmed by RT-PCR, Western blot analysis, and immunofluorescence staining. In addition, for further verification, a macrophage cell line Raw 264.7 (Korea Cell Line Bank, Seoul, Korea) was stimulated with 1 µg/ml of LPS, and the effect of YJ102 on the production of proNGF was investigated. At this time, YJ102 was dissolved in DMSO and treated 30 minutes before LPS treatment.
# To confirm the effect of YJ102 on the expression of inflammatory factors in the bladder after spinal cord injury, the expression of inflammatory cytokines and chemokines, COX-2, iNOS, IL-6, IL-1β, MIP-1α, MIP-1β, MIP-2α, and Gro-α in bladder tissue was confirmed by RT-PCR analysis and Western blot analysis using the primers in Table 2 above. In addition, even in the Raw 264.7 cell line, the expression was verified by RT-PCR analysis.
# [1] = test system: IMQ psoriasis animal model; test: Epidermal layer thickness (H&E) in IMQ psoriasis animal model; format: in vivo, C57BL/6 mouse
# Protocol: Psoriasis caused by excessive production of skin cells was a chronic skin disease associated with various factors, including autoimmune diseases, and its symptoms included red and thickened skin and abnormally occurring scaling. […] Specifically, the back region of a C57BL/6 mouse (male, 18 to 20 g, 8 weeks) (Daehan Biolink, Eumseong, Korea) was shaved to remove hair, and then applied with IMQ cream (83 mg/day) (5%) for consecutive 5 days from Day 0 to Day 4 to induce psoriasis-like skin inflammation, and a normal control mouse (Sham) was applied with Vaseline cream (FIG. 16A).
# On day 6, the skin tissue of the psoriasis mouse model was stained with Hematoxyline & Eosin, and the epidermal layer thickness was measured. Specifically, on Day 6, the skin of the mouse back was extracted, immersed in 4% paraformaldehyde for 24 hours to fix the tissue, and then paraffin blocks were made to prepare paraffin tissue sections with a thickness of 5 µm. In order to measure the thickness of the epidermal layer, paraffin tissue was stained with Hematoxylene & Eosin (Abcam) according to the manufacturer's protocol, and five sections of the epidermal layer from each mouse were photographed at 200x magnification using an optical microscope. The epidermal layer thickness was measured in tissues from a total of five mice (a total of 25 sections) and the average value was calculated.
# urothelial cells = test: Urothelial cell apoptosis in bladder after SCI (TUNEL, cleaved caspase-3, UPIII Western blot); format: in vivo, Sprague-Dawley rats; conditions: day 3 after spinal cord injury
# Excerpt: The effect of YJ102 on urothelial cell apoptosis in bladder tissue after spinal cord injury was confirmed by TUNEL staining, and the protein levels of cleaved caspase-3 indicating caspase-3 activation, and UPIII as a urothelial marker were confirmed by Western blot analysis using p75 (Promega), cleaved caspase-3 (Cell signaling technology), and UPIII (Abcam) as primary antibodies. In addition, in order to confirm whether the mechanism of apoptosis was caused by a p75 neurotrophin receptor, which was involved in urothelial apoptosis, the expression level of p75 was confirmed by RT-PCR, Western blot analysis, and immunofluorescence staining. For RT-PCR analysis, the obtained bladder tissue sections were frozen in liquid nitrogen, and ground in a mortar and pestle to be completely lysed, and then RNA was isolated using a TRIZOL Reagent (Invitrogen) according to a manual, and 20 µl of the total mixture was prepared by using 1 µg of total RNA, and cDNA was synthesized using MMLV reverse transcriptase (Invitrogen).
# [2] = Observation of sedation as a side effect at high doses; format: in vivo, rats; conditions: 100 mg/kg
# inflammatory factors = test: Inflammatory factor expression in L4-5 spinal cord of SNI model (RT-PCR, Western blot); format: in vivo, Sprague-Dawley rats; conditions: ipsilateral spinal cord tissue, 4 weeks after nerve injury, RT-PCR and Western blot
# Protocol: (§1) To be used as a peripheral nerve injury animal model, a sciatic nerve injury (SNI) model was prepared (FIG. 1C). Specifically, 200 to 220 g of male adult Sprague-Dawley rats were anesthetized by intraperitoneal injection of chloral hydrate (500 mg/kg), and then three terminal branches (tibial, common peroneal, and sural nerves) of the right sciatic nerve were approached, and the tibia nerve and the peroneal nerve were tightly ligated with 4-0 silk, and neurectomy was performed at a distal 3 mm position of the ligation site. At this time, a Sham group was a group that exposed only the sciatic nerve without damage.
# It was known that when neuropathic pain occurred, the activation of microglia and astrocytes expressed inflammatory factors including cytokines and chemokines to cause excessive excitation of surrounding neurons. Therefore, in order to confirm changes in inflammatory factor expression by YJ102 administration in the SNI animal model 4 weeks after nerve injury, RNA and protein were extracted from L4-5 spinal cord tissue and RT-PCR and Western blot analysis were performed. Specifically, for RT-PCR analysis, RNA was isolated from spinal cord tissue sections using a TRIZOL Reagent (Invitrogen) according to a manual, and 20 µl of the total mixture was prepared by using 1 µg of total RNA, and cDNA was synthesized using MMLV reverse transcriptase (Invitrogen). […]
# astrocytes = test: Astrocyte activation in spinal cord of SNI model (GFAP immunohistochemistry and Western blot); format: in vivo, Sprague-Dawley rats; conditions: L4-5 spinal cord
# Protocol: as §1
# The activation of astrocytes in the spinal cord, known to play an important role in the process of inducing/persisting neuropathic pain, was confirmed by immunohistochemical staining and Western blot analysis using an anti-GFAP antibody against an intermediate filament protein, Glial fibrillary acidic protein (GFAP) of astrocytes, a marker of astrocyte activation, as in Example 3-1.
smiles,measurement,setting,value
CCc1ccc(N(C(=O)COC)c2nc3cc(Cl)ccc3o2)cc1 [YJ102],"mRNA levels of IL-1β, TNF-α, IL-6, iNOS, and COX-2",Raw 264.7 cell line,significantly reduced
same,reduction of epidermal layer thickness compared to the Vehicle group,[1]; Day 6,approximately 35%
same,epidermal layer thickness,"[1]; Day 6, 5 mg/kg intraperitoneally, Sham 36.6 ± 2.3, Vehicle 141.3 ± 7.5",89.8 ± 6.8 µm
same,number of cells introduced into the dermal layer,"[1]; Day 6, skin tissue H&E",decreased to the Sham level
same,reduction of the level of UPIII (urothelial loss),urothelial cells; Western blot,inhibited
same,caspase-3 activation,urothelial cells; cleaved caspase-3 Western blot,inhibited
same,number of TUNEL-positive cells in the urothelium,urothelial cells; vs Vehicle group,significantly reduced
same,sedation as a side effect,[2],not observed
same,expression of inflammatory factors,inflammatory factors,significantly reduced
same,GFAP expression intensity,astrocytes,significantly decreased
